# According to patent US20240299505A1, “COMPOSITION FOR IMPROVING, PREVENTING OR TREATING INFLAMMATORY BOWEL DISEASE COMPRISING NAMPT-DERIVED PEPTIDE AS ACTIVE INGREDIENT” (Industry-University Cooperation Foundation Hanyang …, priority 2023, published 2024):
# Tests used:
# [1] = system: NLRP3 inflammasome signal 1; assay: NLRP3 inflammasome signal 1 in LPS-treated BMDMs (IB, FACS ROS, cytokine ELISA); type: cell-based, mice; conditions: for production of cytokines (NF-κB-induced): ELISA of supernatants; for generation of ROS: FACS
# Protocol: (§1) FIG. 4 confirms that NAMPT-derived peptides inhibit activation of signal 1 and 2 of NLRP3. Specifically, (A-C) BMDMs were stimulated with LPS for 4 hours and pretreated with rNAMPT for 1 hour (A, B) or 18 hours (C). (A) WCLs were used for IB with αIkB-α, αP-IkB-α, or αActin. (B) FACS analysis for H2O2 (probe for 2′,7′-dichlorofluorescin diacetate) or O^2− (probe for dihydroethidium). Quantitative analysis (upper) of mean fluorescence intensities of H2O2 and O^2− and NADPH oxidase activity (lower), (C) Culture supernatants (SN) were harvested and analyzed for cytokine ELISA. (D, E) LPS-primed BMDMs were treated with rNAMPT for 1 hour and then activated with ATP for 30 minutes. (D) ELISA for IL-1β and IL-18. (E) IB in SN with αIL-1β p17, αIL-18 p18, or αCasp1 p10 and IB of WCL with αPro-IL-1β, αPro-IL-18, αPro-Casp1, or αActin. […] Data come from three independent experiments that yielded similar results. (B-D) Data are provided as mean±SD of three experiments. Significance difference compared to LPS+PBS (*p<0.05; **p<0.01; ***p<0.001);
# (§2) FIG. 5 illustrates results confirming an effect of TAT-NAMPT or NAMPT peptide on inflammation. Specifically, (A) BMDMs were stimulated with LPS (100 ng/ml) for 18 hours and pretreated with rNAMPT for 1 hour. Culture supernatants were collected and analyzed for cytokine ELISA. (B) LPS-primed BMDMs were treated with rNAMPT for 1 hour and then activated with nigericin for 30 minutes and DSS for 24 hours. ELISA for IL-1B and IL-18. […] The shown data are the mean±SD of three experiments. Significant difference comparing LPS+PBS (*p<0.05; **p<0.01; ***p<0.001);
# Primary bone marrow-derived macrophages (BMDMs) were harvested from mice and cultured in DMEM in the presence of M-CSF (R&D Systems, 416-ML) for 3 to 5 days. HEK293T cells (ATCC-11268; American Type Culture Collection) were cultured in DMEM (Gibco) containing 10% FBS (Gibco), nonessential amino acids, sodium pyruvate, streptomycin (100 μg/mL) and penicillin G (100 IU/mL).
# Polypeptides were separated by SDS-polyacrylamide gel electrophoresis and then transferred to a PVDF membrane for immunoblotting (IB) (Bio-Rad, Hercules, CA, USA). For immunodetection, specific antibodies were required, and Chemiluminescence (ECL; Millipore, MA, USA) was used to visualize an antibody bound to a target. In addition, a Vilber chemiluminescence analyzer was used to detect the antibody (Fusion SL3; Vilber Lourmat, Colégien, France).
# Flow cytometry was used to quantify intracellular ROS levels. The cells were cultured in a serum-free medium and stained with 2 μM dihydroethidium (DHE for O^2−; Calbiochem) or 1 μM 2′,7′-dichlorodihydrofluorescein diacetate (H2DCFDA for H2O2; Calbiochem) as a redox-sensitive dye. mAbs were incubated at 4° C. for 20 to 30 minutes to determine cell surface protein expression, and cells were fixed using a Cytofix/Cytoperm Solution (BD Biosciences), and in a specific case, mAb incubation was performed to detect intracellular proteins. The used mAb clones were the following: ITGA6 (GoH3, BD Pharmingen™) and ITGB1 (HMβ1-1, BD Pharmingen™). The cells were washed completely and quickly with pulse spinning before being analyzed in a FACS Calibur (BD Biosciences, San Jose, CA, USA). CellQuest software (BD Biosciences) was used to visualize the data, and FlowJo software was used to analyze the data (Tree Star, Ash-land, OR, USA).
# TNF-α, IL-6, IL-1β and IL-18 levels were measured in cell culture supernatants and mouse serum using the BD OptEIA ELISA system (BD Pharmingen). All experiments were performed according to the manufacturer's protocol.
# To determine the effect of NAMPT peptides related to signal 1 for the NLRP3 inflammasome in macrophages, LPS-treated BMDMs were exposed to different concentrations of NAMPT peptides (aa 57-65, aa 52-56, or aa 52-65). […] Thus, the TAT-NAMPT peptides were less likely to inhibit the interaction of eNAMPT with TLR4 or CYBB.
# [2] = system: NLRP3 inflammasome signal 2; assay: NLRP3 inflammasome signal 2 in LPS-primed BMDMs activated with ATP, nigericin or DSS (ELISA, IB); type: cell-based, mice
# Protocol: as §1, §2
# Primary bone marrow-derived macrophages (BMDMs) were harvested from mice and cultured in DMEM in the presence of M-CSF (R&D Systems, 416-ML) for 3 to 5 days. […]
# TNF-α, IL-6, IL-1β and IL-18 levels were measured in cell culture supernatants and mouse serum using the BD OptEIA ELISA system (BD Pharmingen). […]
# CYBB = molecular target: T1, CYBB (Homo sapiens, UniProt P04839); assay: Fluorescence binding titration of labeled CYBB with unlabeled NAMPT; conditions: fluorescently labeled CYBB titrated with unlabeled NAMPT, curve fit; read-out: Kd of NAMPT-CYBB interaction
# T1 sequence (P04839 1-570): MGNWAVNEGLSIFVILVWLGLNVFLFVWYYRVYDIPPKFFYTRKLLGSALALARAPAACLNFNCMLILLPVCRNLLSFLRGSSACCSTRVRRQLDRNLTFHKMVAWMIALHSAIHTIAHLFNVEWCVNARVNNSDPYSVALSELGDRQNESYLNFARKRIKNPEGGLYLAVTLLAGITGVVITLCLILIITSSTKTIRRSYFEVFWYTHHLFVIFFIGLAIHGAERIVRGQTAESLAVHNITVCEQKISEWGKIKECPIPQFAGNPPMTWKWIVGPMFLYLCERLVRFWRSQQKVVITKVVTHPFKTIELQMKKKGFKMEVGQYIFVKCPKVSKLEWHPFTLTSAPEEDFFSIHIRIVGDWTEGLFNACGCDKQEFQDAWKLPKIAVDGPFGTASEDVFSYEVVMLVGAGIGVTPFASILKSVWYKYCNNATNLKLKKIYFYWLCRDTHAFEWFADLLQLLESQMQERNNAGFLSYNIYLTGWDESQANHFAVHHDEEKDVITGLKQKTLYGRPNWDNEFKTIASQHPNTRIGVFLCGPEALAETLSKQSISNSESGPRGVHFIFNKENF
# TLR4 = TLR4 (Homo sapiens, UniProt O00206); assay: Fluorescence binding titration of labeled TLR4 with unlabeled NAMPT; conditions: fluorescently labeled TLR4 titrated with unlabeled NAMPT, curve fit; read-out: Kd of NAMPT-TLR4 interaction
# TLR4, sequence (O00206 24-839, species assumed): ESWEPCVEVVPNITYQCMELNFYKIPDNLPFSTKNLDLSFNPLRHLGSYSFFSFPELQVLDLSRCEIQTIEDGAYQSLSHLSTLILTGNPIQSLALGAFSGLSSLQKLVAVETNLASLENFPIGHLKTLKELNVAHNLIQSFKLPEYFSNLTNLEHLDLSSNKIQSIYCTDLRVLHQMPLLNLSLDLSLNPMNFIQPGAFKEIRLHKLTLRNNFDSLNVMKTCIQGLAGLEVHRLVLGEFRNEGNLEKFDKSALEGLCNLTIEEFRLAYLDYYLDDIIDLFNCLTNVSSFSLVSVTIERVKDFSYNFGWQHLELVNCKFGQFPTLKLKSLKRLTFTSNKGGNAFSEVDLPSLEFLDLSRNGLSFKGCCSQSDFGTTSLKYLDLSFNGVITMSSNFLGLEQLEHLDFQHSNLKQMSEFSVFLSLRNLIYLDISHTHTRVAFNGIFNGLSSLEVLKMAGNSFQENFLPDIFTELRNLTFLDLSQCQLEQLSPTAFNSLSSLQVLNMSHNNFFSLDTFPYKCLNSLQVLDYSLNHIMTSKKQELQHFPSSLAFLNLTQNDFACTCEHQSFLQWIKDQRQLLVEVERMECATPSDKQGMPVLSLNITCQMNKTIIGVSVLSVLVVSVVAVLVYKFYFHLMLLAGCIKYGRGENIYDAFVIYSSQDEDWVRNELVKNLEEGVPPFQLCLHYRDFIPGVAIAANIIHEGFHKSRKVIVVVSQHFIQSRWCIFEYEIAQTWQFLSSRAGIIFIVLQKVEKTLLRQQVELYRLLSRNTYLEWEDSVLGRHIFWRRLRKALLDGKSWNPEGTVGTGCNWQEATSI
# NAMPT-TLR4 binding = assay: Co-immunoprecipitation of Myc-NAMPT with Flag-TLR4 in 293T cells treated with TAT-NAMPT peptides; type: cell-based; conditions: Myc-NAMPT and Flag-TLR4, peptide 6 hours, 5 μM or 1, 5, 10 μM
# Protocol: (§3) FIG. 3 illustrates experimental design and results for identifying an essential region of NAMPT for binding to TLR4 and CYBB. Specifically, (A) Schematic diagram (upper) of the structures of NAMPT and TLR4. 293T cells were transfected with GST-NAMPT or its mutants and Flag-TLR4. GST pulldown was performed with 293T cells and then IB was performed using αFlag. WCLs were used for IB using αGST, αFlag, or αActin (lower, left in A). 293T cells were transfected with Flag-TLR4 or its mutants and Myc-NAMPT. The 293T cells were used for IP with αMyc, followed by IB with αFlag. WCLs were used for IB using αMyc, αFlag or αActin (lower, right in A). (B) 293T cells were transfected with Myc-NAMPT and Flag-TLR4 and treated with NAMPT peptide or its mutants for 6 hours (5 μM, left; 1, 5, 10 μM, right). The 293T cells were used for IP with αFlag, followed by IB with αMyc. WCLs were used for IB using αMyc, αFlag, or αActin. (C) Schematic diagram (upper) of the structures of CYBB. 293T cells were transfected with GST-NAMPT or its mutants and V5-CYBB (lower, left in C). The 293T cells were transfected with GST-CYBB or its mutants and Myc-NAMPT (lower, right in C). The 293T cells were subjected to GST pull-down, followed by IB with αV5 or αMyc. WCLs were used for IB using αGST, αMyc, a V5 or αActin. […]
# NAMPT-CYBB binding = molecular target: T2, NAMPT-CYBB binding (Homo sapiens, UniProt P04839); assay: Co-immunoprecipitation of Myc-NAMPT with V5-CYBB in 293T cells treated with TAT-NAMPT peptides; type: cell-based; conditions: Myc-NAMPT and V5-CYBB, peptide 6 hours, 5 μM or 1, 5, 10 μM
# T2 construct: The full-length (FL) CYBB and mutant plasmids were constructed as follows; expressed in transfected cells; host or cells: HEK293T (293T)
# T2 sequence (P04839 1-570): T1 sequence (P04839 1-570)
# Protocol: as §3
Substance,activation of NF-κB [1],production of cytokines (NF-κB-induced) [1],generation of ROS [1],further results
"NAMPT peptides aa 52-56: peptide of amino acids 52 to 56 of NAMPT (SEQ ID NO: 1), binds CYBB (VKYEE; listed as Homo sapiens)",partially inhibited,partially inhibited,partially inhibited,
"NAMPT peptides aa 52-65: peptide of amino acids 52 to 65 of NAMPT (SEQ ID NO: 1), binds TLR4 and CYBB (VKYEETVFYGLQYI; listed as Homo sapiens)",,markedly inhibited,markedly inhibited,"action of eNAMPT on NLRP3 inflammasome signal 2 ([2]; FIG. 4D lower, FIG. 4E right): specifically inhibited the action of eNAMPT; ATP-induced caspase-1 cleavage ([2]; LPS-primed BMDMs, ATP 30 minutes): efficiently inhibited; maturation of IL-1β and IL-18 ([2]; LPS-primed BMDMs, ATP, nigericin or DSS stimulation): efficiently inhibited"
"NAMPT peptides aa 57-65: peptide of amino acids 57 to 65 of NAMPT (SEQ ID NO: 1), binds TLR4 (TVFYGLQYI; listed as Homo sapiens)",partially inhibited,partially inhibited,partially inhibited,
Nicotinamide phosphoribosyl transferase [NAMPT],,,,Kd (CYBB): 896 nM; Kd (TLR4): 219 nM
TAT-NAMPT (aa 40-69) (GRKKRRQRRRPQREKKTENSKLRKVKYEETVFYGLQYILNKY),,,,binding of NAMPT to TLR4 (IP/IB) (NAMPT-TLR4 binding): reduced the binding of NAMPT to TLR4; binding of NAMPT to CYBB (IP/IB) (NAMPT-CYBB binding): bound to CYBB
